Experiments:
Settings in all cases: MRS medium, 37° C.; A50, K50, S50 50, C34 34, T15 15, G20 20, R25 25 microgram/ml
[1] = system: BBA (Bifidobacterium adolescentis); experiment: Antibiotic susceptibility of lactic acid bacteria strains; assay type: cell-based; further: key: +++: being normally grown without the effect of antibiotic; −: being not grown caused by the effect of antibiotic
Description: (§1) In order to determine the antibiotic resistance of the lactic acid bacteria strains reproducing abundant lactic acids, i.e., Lactobacillus acidophilus (KCTC No. 3164), Bifidobacterium longum sub sp. longum (KCTC No. 3128) etc, the bacteria was inoculated into MRS medium (10 g of Protease peptone, 10 g of beef extract, 5 g of yeast extract, 20 g of D-glucose, 1 ml of Tween 80, 2 g of K2HPO4, 5 g of sodium acetate, 2 g of diammonium hydrogencitrate, 0.2 g of MgSO47H20, 0.2 g of MnSO4H20, 1 L of distilled water, pH 6.2-6.5) and performed to shaking incubation at 37° C. at the speed of 150 rpm.

[2] = system: BBC (Bacillus cereus); experiment: as above; assay type: cell-based
Description: as §1

[3] = system: BBC2 (Bifidobacterium catenulatum); experiment: as above; assay type: cell-based; further: key: +++: being normally grown without the effect of antibiotic; −: being not grown caused by the effect of antibiotic
Description: as §1

[4] = system: BBL (Bifidobacterium longum subsp. Longum); experiment: as above; assay type: cell-based; further: key: +++: being normally grown without the effect of antibiotic; −: being not grown caused by the effect of antibiotic
Description: as §1

[5] = system: BLB (Lactobacillus brevis); experiment: as above; assay type: cell-based
Description: as §1

[6] = system: BLC (Lactobacillus casei); experiment: as above; assay type: cell-based
Description: as §1

[7] = system: BLD (Lactobacillus delbrueckii subsp. bulgaricus); experiment: as above; assay type: cell-based
Description: as §1

[8] = system: BSS (Streptococcus sp); experiment: as above; assay type: cell-based
Description: as §1

[9] = system: BLA (Lactobacillus acidophilus); experiment: as above; assay type: cell-based
Description: as §1

[10] = system: BBB1 (Bifidobacterium bifidum); set-up: key to the marks not given beside the values
[11] = system: BBB2 (Bifidobacterium breve); set-up: key to the marks not given beside the values
Wherever Antibiotic susceptibility (growth of BBC with antibiotic) is given: key: +++: being normally grown without the effect of antibiotic; −: being not grown caused by the effect of antibiotic.

Compound | Antibiotic susceptibility (growth of BBA with antibiotic) [1] | Antibiotic susceptibility (growth of BBC with antibiotic) [2] | Antibiotic susceptibility (growth of BBC2 with antibiotic) [3] | Antibiotic susceptibility (growth of BBL with antibiotic) [4] | Antibiotic susceptibility (growth of BLB with antibiotic) [5] | Antibiotic susceptibility (growth of BLC with antibiotic) [6] | Antibiotic susceptibility (growth of BLD with antibiotic) [7] | Antibiotic susceptibility (growth of BSS with antibiotic) [8] | Antibiotic susceptibility (growth of BLA with antibiotic) [9] | Antibiotic susceptibility (growth of BBB1 with antibiotic) [10] | Antibiotic susceptibility (growth of BBB2 with antibiotic) [11]
CC1(C)S[C@@H]2[C@H](NC(=O)[C@H](N)c3ccccc3)C(=O)N2[C@H]1C(=O)O [Ampicillin, ampicillin] | − | − | − | − | − | − | − | − |  |  | 
CN(C)[C@@H]1C(=O)C(C(N)=O)=C(O)[C@@]2(O)C(=O)C3=C(O)c4c(O)cccc4[C@@](C)(O)[C@H]3C[C@@H]12 [Tetracyclin, tetracycline] | − | − | − | − | − | − | − | − | − |  | 
CO[C@H]1/C=C/O[C@@]2(C)Oc3c(C)c(O)c4c(O)c(c(/C=N/N5CCN(C)CC5)c(O)c4c3C2=O)NC(=O)/C(C)=C\C=C\[C@H](C)[C@H](O)[C@@H](C)[C@@H](O)[C@@H](C)[C@H](OC(C)=O)[C@@H]1C [Ripampicin, rifampicin] | − | − | − | − | − | − | − | − | − |  | 
NC[C@H]1O[C@H](O[C@H]2[C@H](O)[C@@H](O[C@H]3O[C@H](CO)[C@@H](O)[C@H](N)[C@H]3O)[C@H](N)C[C@@H]2N)[C@H](O)[C@@H](O)[C@@H]1O [Kanamycin, kanamycin] |  |  |  | +++ | +++ | +++ | +++ | +++ | +++ | +++ | +++
[H]/N=C(/N)N[C@H]1[C@H](O)[C@@H](O)[C@H](O[C@@H]2O[C@@H](C)[C@](O)(C=O)[C@H]2O[C@@H]2O[C@@H](CO)[C@H](O)[C@@H](O)[C@@H]2NC)[C@@H](N/C(N)=N\[H])[C@@H]1O [Streptomycin] |  |  |  | +++ | − | − | − |  | − |  | +++
gentamycin | +++ | +++ | +++ | +++ | − | − | − |  | − |  | 
O=C(N[C@H](CO)[C@H](O)c1ccc([N+](=O)[O-])cc1)C(Cl)Cl [Chloramphenicol, chloramphenicol] | − | − | − | − | − | − | − | − | − |  | 
